Our source for the melting point, inhibition and IC50 values is US11352359B2, “PI3K protein kinase inhibitors” (Rhizen Pharmaceuticals SA, priority 2013, dated 2022).

Structures can show the parent of a compound that is named as a salt.

Data set [1] has as its target PI3Kδ (Homo sapiens, UniProt O00329). Kind of data set: Fluorescent determination of PI3Kinase enzyme activity (HTRF), PI3Kδ. The conditions noted are these: for inhibition at 0.1 µM: 100 nM (underlined values: 300 nM). It counts as biochemical. The source says:
(§1) Fluorescent Determination of PI3Kinase Enzyme Activity
(§2) Phosphoinositide 3 kinases (PI3K) belong to a class of Lipid kinases that play a critical role in the regulation of several key cellular processes. The PI3K are capable of phosphorylating the 3-hydroxy position of phosphoinositols thereby generating second messengers involved in downstream signalling events. The homogenous time resolved fluorescence (HTRF) assay allows detection of 3,4,5-triphosphate (PIP3) formed as a result of phosphorylation of phosphotidylinositol 4,5-biphosphate (PIP2) by PI3K isoforms such as α, […], γ or δ.
(§3) PI3K isoform activity for α, β, γ or δ is to be determined using a PI3K human HTRF™ Assay Kit (Millipore, Billerica, Mass.) with modifications. All incubations were carried out at room temperature. Briefly, 0.5 μl of 40× inhibitor (in 100% DMSO) or 100% DMSO were added to each well of a 384-well black plate (Greiner Bio-One, Monroe, N.C.) containing 14.5 μl 1× reaction buffer/PIP2 (10 mM MgCl2, 5 mM DTT, 1.38 μM PIP2) mix with or without enzyme and incubated for 10 min. After the initial incubation, 5 μl/well of 400 μM ATP was added and incubated for an additional 30 minutes. Reaction was terminated by adding 5 μl/well stop solution (Millipore, Billerica, Mass.). Five microliters of detection mix (Millipore, Billerica, Mass.) were then added to each well and was incubated for 6-18 h in the dark. HRTF ratio was measured on a microplate reader (BMG Labtech, Germany) at an excitation wavelength of 337 nm and emission wavelengths of 665 and 620 nm with an integration time of 400 μsec. Data was analyzed using Graphpad Prism (Graphpad software; San Diego Calif.) for IC50 determination).

Data set [2] addresses PI3Kγ (Homo sapiens, UniProt P48736). Kind of data set: Fluorescent determination of PI3Kinase enzyme activity (HTRF), PI3Kγ. It counts as biochemical. The conditions noted are these: for inhibition at 0.1 µM: 100 nM (underlined values: 300 nM).
Text: as §1, §2, §3
(In general: TR-FRET usually uses a lanthanide donor and a delayed reading to cut background.)

The target of data set [3] is PI3Kβ (Homo sapiens, UniProt P42338). The experiment in a line: Fluorescent determination of PI3Kinase enzyme activity (HTRF), PI3Kβ. It is filed as biochemical.
Text: as §1, §2, §3

Data set [4] deals with PI3Kα (Homo sapiens, UniProt P42336). Kind of data set: Fluorescent determination of PI3Kinase enzyme activity (HTRF), PI3Kα. It is filed as biochemical.
Text: as §1, §2, §3

Chain of PI3Kβ (P42338 whole entry): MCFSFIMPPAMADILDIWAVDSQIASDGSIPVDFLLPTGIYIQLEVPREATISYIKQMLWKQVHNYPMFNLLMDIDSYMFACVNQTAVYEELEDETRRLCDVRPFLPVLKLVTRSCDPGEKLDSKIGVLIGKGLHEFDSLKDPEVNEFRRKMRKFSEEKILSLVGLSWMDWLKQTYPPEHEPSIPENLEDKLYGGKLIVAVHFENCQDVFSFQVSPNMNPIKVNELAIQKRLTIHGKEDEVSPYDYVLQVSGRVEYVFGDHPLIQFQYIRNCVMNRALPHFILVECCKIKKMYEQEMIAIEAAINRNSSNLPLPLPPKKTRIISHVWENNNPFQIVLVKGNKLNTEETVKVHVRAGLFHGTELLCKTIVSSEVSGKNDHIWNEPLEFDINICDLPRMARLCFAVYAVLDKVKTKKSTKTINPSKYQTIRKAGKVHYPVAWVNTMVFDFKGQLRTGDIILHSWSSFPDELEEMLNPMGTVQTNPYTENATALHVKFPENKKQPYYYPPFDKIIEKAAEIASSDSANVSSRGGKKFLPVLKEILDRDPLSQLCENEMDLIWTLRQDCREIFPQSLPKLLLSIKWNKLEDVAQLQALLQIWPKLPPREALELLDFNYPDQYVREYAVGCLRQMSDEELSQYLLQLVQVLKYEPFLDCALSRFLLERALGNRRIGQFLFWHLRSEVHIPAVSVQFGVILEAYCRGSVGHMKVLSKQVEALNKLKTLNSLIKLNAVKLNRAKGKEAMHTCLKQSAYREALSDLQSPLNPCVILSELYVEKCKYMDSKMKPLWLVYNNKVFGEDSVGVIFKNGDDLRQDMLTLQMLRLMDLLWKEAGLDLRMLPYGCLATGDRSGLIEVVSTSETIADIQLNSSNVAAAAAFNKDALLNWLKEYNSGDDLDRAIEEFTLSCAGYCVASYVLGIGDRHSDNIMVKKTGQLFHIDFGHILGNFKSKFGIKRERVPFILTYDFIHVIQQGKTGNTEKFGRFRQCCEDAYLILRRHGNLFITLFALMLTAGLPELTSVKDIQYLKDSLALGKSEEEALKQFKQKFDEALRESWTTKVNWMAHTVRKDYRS
Chain of PI3Kβ (P27986 whole entry partner): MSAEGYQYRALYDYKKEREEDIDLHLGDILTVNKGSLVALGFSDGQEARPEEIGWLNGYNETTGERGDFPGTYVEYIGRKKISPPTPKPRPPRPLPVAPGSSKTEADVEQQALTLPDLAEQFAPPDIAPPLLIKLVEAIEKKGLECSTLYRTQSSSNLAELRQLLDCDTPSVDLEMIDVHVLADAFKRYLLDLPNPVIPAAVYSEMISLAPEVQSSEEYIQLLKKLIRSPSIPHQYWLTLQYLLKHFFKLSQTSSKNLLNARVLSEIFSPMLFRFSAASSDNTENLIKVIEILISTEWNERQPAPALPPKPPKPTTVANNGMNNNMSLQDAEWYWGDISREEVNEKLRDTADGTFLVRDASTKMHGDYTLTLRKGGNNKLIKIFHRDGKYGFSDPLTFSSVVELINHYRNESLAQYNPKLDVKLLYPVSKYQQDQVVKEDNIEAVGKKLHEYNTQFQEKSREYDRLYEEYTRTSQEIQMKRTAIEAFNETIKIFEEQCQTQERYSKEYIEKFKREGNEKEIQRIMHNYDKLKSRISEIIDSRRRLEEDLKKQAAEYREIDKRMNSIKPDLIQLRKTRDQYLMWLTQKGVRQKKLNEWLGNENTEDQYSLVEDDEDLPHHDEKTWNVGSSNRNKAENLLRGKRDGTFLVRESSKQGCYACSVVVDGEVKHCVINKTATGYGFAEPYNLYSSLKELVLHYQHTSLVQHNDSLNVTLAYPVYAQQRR
Chain of PI3Kα (P42336 whole entry): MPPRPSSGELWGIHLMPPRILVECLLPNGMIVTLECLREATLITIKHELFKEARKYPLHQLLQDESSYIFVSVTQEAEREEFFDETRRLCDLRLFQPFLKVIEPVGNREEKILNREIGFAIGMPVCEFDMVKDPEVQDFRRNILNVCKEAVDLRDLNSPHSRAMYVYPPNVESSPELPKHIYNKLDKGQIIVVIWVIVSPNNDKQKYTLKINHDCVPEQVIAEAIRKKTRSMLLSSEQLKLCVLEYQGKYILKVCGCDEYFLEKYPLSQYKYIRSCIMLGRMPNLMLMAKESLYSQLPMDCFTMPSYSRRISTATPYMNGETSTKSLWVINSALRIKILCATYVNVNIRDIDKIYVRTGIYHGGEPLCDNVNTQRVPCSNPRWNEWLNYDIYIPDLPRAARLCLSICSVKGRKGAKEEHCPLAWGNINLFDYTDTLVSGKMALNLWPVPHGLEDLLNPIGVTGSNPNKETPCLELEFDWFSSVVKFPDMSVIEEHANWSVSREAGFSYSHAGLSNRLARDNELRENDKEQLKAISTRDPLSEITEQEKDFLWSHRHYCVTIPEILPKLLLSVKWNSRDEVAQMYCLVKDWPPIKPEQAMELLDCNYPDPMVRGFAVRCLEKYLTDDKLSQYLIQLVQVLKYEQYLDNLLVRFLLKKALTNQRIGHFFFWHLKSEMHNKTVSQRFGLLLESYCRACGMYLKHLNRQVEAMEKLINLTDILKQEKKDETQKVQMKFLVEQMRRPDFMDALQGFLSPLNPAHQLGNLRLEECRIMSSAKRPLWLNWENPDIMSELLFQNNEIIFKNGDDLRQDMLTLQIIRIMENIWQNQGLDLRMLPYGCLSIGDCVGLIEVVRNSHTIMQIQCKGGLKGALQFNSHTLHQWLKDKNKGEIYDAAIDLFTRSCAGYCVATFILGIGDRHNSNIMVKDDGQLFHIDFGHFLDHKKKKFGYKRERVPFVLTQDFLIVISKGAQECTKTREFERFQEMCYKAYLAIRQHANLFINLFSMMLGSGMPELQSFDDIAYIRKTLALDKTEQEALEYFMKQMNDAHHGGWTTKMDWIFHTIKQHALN
Chain of PI3Kα (P27986 whole entry partner): as the sequence (P27986 whole entry partner) above
Chain of PI3Kγ (P48736 whole entry): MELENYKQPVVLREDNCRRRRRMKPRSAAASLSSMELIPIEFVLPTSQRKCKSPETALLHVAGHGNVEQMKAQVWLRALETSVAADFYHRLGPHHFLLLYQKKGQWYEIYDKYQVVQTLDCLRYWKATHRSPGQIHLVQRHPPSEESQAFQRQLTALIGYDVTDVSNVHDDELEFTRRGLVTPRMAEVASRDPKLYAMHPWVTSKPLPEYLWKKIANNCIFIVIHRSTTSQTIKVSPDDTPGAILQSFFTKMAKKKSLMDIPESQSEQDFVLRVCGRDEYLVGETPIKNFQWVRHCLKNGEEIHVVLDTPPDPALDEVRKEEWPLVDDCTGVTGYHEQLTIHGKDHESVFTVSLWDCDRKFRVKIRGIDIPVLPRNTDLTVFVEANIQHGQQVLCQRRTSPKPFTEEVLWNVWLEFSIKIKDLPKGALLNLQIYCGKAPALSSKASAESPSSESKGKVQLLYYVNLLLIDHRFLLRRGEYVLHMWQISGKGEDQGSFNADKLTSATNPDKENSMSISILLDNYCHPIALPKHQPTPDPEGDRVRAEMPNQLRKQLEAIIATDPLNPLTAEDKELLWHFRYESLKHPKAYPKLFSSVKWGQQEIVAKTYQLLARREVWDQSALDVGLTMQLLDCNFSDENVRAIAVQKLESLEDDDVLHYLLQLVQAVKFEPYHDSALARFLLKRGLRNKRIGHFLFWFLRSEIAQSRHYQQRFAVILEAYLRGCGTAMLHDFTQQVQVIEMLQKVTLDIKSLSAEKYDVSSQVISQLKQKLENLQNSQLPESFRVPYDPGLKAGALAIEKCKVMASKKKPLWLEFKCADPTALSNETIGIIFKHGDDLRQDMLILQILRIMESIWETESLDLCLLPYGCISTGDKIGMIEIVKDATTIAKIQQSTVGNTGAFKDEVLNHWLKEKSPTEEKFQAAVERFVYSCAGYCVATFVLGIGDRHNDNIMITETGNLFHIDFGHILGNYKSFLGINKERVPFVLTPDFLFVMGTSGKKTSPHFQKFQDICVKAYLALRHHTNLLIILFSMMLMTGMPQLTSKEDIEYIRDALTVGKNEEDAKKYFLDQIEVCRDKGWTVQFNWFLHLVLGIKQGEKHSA
Chain of PI3Kδ (O00329 whole entry): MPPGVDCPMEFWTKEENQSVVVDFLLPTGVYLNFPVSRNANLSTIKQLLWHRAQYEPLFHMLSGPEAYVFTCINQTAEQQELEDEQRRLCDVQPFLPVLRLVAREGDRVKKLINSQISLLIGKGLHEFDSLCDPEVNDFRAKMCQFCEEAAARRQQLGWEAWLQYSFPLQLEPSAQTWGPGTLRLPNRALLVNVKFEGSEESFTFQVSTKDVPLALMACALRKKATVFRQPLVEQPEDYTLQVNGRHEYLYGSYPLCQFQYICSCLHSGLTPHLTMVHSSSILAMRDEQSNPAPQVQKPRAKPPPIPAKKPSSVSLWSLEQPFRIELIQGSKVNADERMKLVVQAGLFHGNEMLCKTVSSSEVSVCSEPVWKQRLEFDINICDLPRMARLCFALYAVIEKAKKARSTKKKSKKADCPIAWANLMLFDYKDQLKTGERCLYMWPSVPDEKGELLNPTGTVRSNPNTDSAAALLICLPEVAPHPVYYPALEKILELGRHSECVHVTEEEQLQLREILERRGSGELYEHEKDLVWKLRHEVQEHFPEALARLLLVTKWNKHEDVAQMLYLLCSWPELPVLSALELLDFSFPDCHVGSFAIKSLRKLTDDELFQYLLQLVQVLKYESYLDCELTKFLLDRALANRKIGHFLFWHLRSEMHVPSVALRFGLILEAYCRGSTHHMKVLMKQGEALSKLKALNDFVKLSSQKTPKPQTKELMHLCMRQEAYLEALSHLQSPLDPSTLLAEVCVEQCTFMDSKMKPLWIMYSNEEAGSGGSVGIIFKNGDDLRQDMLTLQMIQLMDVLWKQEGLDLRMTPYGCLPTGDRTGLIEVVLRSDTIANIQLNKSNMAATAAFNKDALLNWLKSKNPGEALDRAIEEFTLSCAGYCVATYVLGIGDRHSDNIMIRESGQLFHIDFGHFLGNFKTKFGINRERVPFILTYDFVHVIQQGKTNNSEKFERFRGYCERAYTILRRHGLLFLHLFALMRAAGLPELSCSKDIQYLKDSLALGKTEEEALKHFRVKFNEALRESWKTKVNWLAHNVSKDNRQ
Chain of PI3Kδ (P27986 whole entry partner): as the sequence (P27986 whole entry partner) above

A word on the melting point: it is the temperature, or range, at which the solid turns liquid. The compound `CC(C)Oc1ccc(-c2nn(C(C)c3cc4cccc(F)c4c(=O)n3-c3ccccc3)c3ncnc(N)c23)cc1F` (stereo not shown) (as salt: potassium) [Example 2, 3-(1-(4-amino-3-(3-fluoro-4-isopropoxyphenyl)-1H-pyrazolo[3,4-d]pyrimidin-1-yl)ethyl)-8-fluoro-2-phenylisoquinolin-1(2H)-one] displayed a melting point of 264 to 266 °C.
For the compound `CC(C)Oc1ccc(-c2nn(C(C)c3nc4ccc(F)cc4c(=O)n3-c3ccccc3)c3ncnc(N)c23)cc1F` (stereo not shown) (as salt: potassium) [Example 4, 2-(1-(4-amino-3-(3-fluoro-4-isopropoxyphenyl)-1H-pyrazolo[3,4-d]pyrimidin-1-yl)ethyl)-6-fluoro-3-phenylquinazolin-4(3H)-one], the melting point was in the range of 215 to 218 °C.
On the same count and under the same terms, the result for `CC(C)Oc1ccc(-c2nn(C(C)c3nc4ccccc4c(=O)n3-c3ccccc3)c3ncnc(N)c23)cc1F` (stereo not shown) (as salt: potassium) [Example 6, 2-(1-(4-amino-3-(3-fluoro-4-isopropoxyphenyl)-1H-pyrazolo[3,4-d]pyrimidin-1-yl)ethyl)-3-phenylquinazolin-4(3H)-one] reads 236 to 239 °C.
The same measure, in the same setting: to `CC(c1cc2cccc(Cl)c2c(=O)n1-c1ccccc1)n1nc(-c2ccc(OC(F)F)c(F)c2)c2c(N)ncnc21` (stereo not shown) (as salt: potassium) [Example 17, 3-(1-(4-amino-3-(4-(difluoromethoxy)-3-fluorophenyl)-1H-pyrazolo[3,4-d]pyrimidin-1-yl)ethyl)-8-chloro-2-phenylisoquinolin-1(2H)-one] belongs 160 to 162 °C.
A word on the inhibition: it is the percentage by which the read-out fell short of the control. In the case of `CC(C)Oc1ccc(-c2nn(C(C)c3cc4cccc(Cl)c4c(=O)n3-c3ccccc3)c3ncnc(N)c23)cc1F` (stereo not shown) [Example 1, 3-(1-(4-amino-3-(3-fluoro-4-isopropoxyphenyl)-1H-pyrazolo[3,4-d]pyrimidin-1-yl)ethyl)-8-chloro-2-phenylisoquinolin-1(2H)-one], the melting point lay within 164 to 166 °C. The compound further registered an inhibition at 0.1 µM in data set [1] of 20 to 40%. The compound also showed an inhibition at 0.1 µM in data set [2] of 0 to 20%. The inhibition at 1 µM in data set [3] fell in the range of 0 to 10%. This compound had an inhibition at 1 µM in data set [4] of 0 to 10%.
For `CC(C)Oc1ccc(-c2nn([C@H](C)c3cc4ccccc4c(=O)n3-c3ccccc3)c3ncnc(N)c23)cc1F` [Example 5b, (−)-3-(1-(4-amino-3-(3-fluoro-4-isopropoxyphenyl)-1H-pyrazolo[3,4-d]pyrimidin-1-yl)ethyl)-2-phenylisoquinolin-1(2H)-one], the melting point is 232 to 235 °C. In addition, in data set [1], the inhibition at 0.1 µM fell in the range of 40 to 60%. In data set [2], the inhibition at 0.1 µM lay in the range of 0 to 20%. In data set [3], this compound registered an inhibition at 1 µM of 60 to 80%. In data set [4], the inhibition at 1 µM is 0 to 10%.
The corresponding values for `CC(C)Oc1ccc(-c2nn([C@H](C)c3nc4ccccc4c(=O)n3-c3ccccc3)c3ncnc(N)c23)cc1F` [Example 6b, (−)-2-(1-(4-amino-3-(3-fluoro-4-isopropoxyphenyl)-1H-pyrazolo[3,4-d]pyrimidin-1-yl)ethyl)-3-phenylquinazolin-4(3H)-one] are 192 to 195 °C, 20 to 40%, 0 to 20%, 20 to 40% and 0 to 10%.
The corresponding values for `C[C@H](c1cc2ccccc2c(=O)n1-c1ccccc1)n1nc(-c2ccc(O)c(F)c2)c2c(N)ncnc21` [Example 7b, (−)-3-(1-(4-amino-3-(3-fluoro-4-hydroxyphenyl)-1H-pyrazolo[3,4-d]pyrimidin-1-yl)ethyl)-2-phenylisoquinolin-1(2H)-one] are 230 to 232 °C, 40 to 60%, 20 to 40%, 20 to 40% and 0 to 10%.
The like results for `CC(c1nc2ccccc2c(=O)n1-c1ccccc1)n1nc(-c2ccc(O)c(F)c2)c2c(N)ncnc21` (stereo not shown) [Example 8, 2-(1-(4-amino-3-(3-fluoro-4-hydroxyphenyl)-1H-pyrazolo[3,4-d]pyrimidin-1-yl)ethyl)-3-phenylquinazolin-4(3H)-one] were, in that order, 230 to 233 °C, 20 to 40%, 0 to 20%, 20 to 40% and 0 to 10%.
`COc1ccc(-c2nn(C(C)c3cc4ccccc4c(=O)n3-c3ccccc3)c3ncnc(N)c23)cc1NS(C)(=O)=O` (stereo not shown) [Example 9, N-(5-(4-amino-1-(1-(1-oxo-2-phenyl-1,2-dihydroisoquinolin-3-yl)ethyl)-1H-pyrazolo[3,4-d]pyrimidin-3-yl)-2-methoxyphenyl)methanesulfonamide] registered a melting point of 260 to 263 °C. For the same compound, the inhibition at 0.1 µM in data set [1] lay within 40 to 60%. In data set [2], this compound gave an inhibition at 0.1 µM of 20 to 40%. The compound also gave an inhibition at 1 µM in data set [3] of 40 to 60%. In data set [4], this compound gave an inhibition at 1 µM of 20 to 40%.
As to `COc1ccc(-c2nn([C@H](C)c3cc4ccccc4c(=O)n3-c3ccccc3)c3ncnc(N)c23)cc1NS(C)(=O)=O` [Example 9b, (−)—N-(5-(4-amino-1-(1-(1-oxo-2-phenyl-1,2-dihydroisoquinolin-3-yl)ethyl)-1H-pyrazolo[3,4-d]pyrimidin-3-yl)-2-methoxyphenyl)methanesulfonamide], the melting point was 158 to 162 °C. Also, the inhibition at 0.1 µM in data set [1] fell in the range of 40 to 60%. For the same compound, the inhibition at 0.1 µM in data set [2] fell in the range of 0 to 20%. Also, the inhibition at 1 µM in data set [3] was 10 to 20%. The compound also showed an inhibition at 1 µM in data set [4] of 0 to 10%.
The like results for `CC(c1nc2ccc(F)cc2c(=O)n1-c1ccccc1)n1nc(-c2ccc(O)c(F)c2)c2c(N)ncnc21` (stereo not shown) [Example 13, 2-(1-(4-amino-3-(3-fluoro-4-hydroxyphenyl)-1H-pyrazolo[3,4-d]pyrimidin-1-yl)ethyl)-6-fluoro-3-phenylquinazolin-4(3H)-one] were, in that order, 231 to 232 °C, 20 to 40%, 20 to 40%, 10 to 20% and 0 to 10%.
The corresponding values for `CC(c1cc2cccc(Cl)c2c(=O)n1-c1ccccc1)n1nc(-c2ccc(O)c(F)c2)c2c(N)ncnc21` (stereo not shown) [Example 14, 3-(1-(4-amino-3-(3-fluoro-4-hydroxyphenyl)-1H-pyrazolo[3,4-d]pyrimidin-1-yl)ethyl)-8-chloro-2-phenylisoquinolin-1(2H)-one] are 218 to 219 °C, 60 to 80%, 80 to 100%, 60 to 80% and 20 to 40%.
Turning to `COc1ccc(-c2nn(C(C)c3cc4cccc(Cl)c4c(=O)n3-c3ccccc3)c3ncnc(N)c23)cc1NS(C)(=O)=O` (stereo not shown) [Example 20, N-(5-(4-amino-1-(1-(8-chloro-1-oxo-2-phenyl-1,2-dihydroisoquinolin-3-yl)ethyl)-1H-pyrazolo[3,4-d]pyrimidin-3-yl)-2-methoxyphenyl)methanesulfonamide], the inhibition at 0.1 µM in data set [1] lay within 80 to 100%; in data set [2], 60 to 80%. In addition, the inhibition at 1 µM was 20 to 40% in data set [3] and 40 to 60% in data set [4].
What is called IC50 is the concentration that inhibits the measured activity by half. As for `COc1ccc(-c2nn([C@@H](C)c3cc4cccc(Cl)c4c(=O)n3-c3ccccc3)c3ncnc(N)c23)cc1NS(C)(=O)=O` [Example 20a, (+)—N-(5-(4-amino-1-(1-(8-chloro-1-oxo-2-phenyl-1,2-dihydroisoquinolin-3-yl)ethyl)-1H-pyrazolo[3,4-d]pyrimidin-3-yl)-2-methoxyphenyl)methanesulfonamide], the IC50 in data set [1] came out at 76.4 nM; in data set [2], 142 nM. Also, the inhibition at 0.1 µM in data set [1] is 60 to 80%; in data set [2], 20 to 40%. In addition, the inhibition at 1 µM in data set [3] is 10 to 20%; in data set [4] it was 0 to 10%.
`Cc1n[nH]c2cc(-c3nn([C@@H](C)c4cc5cccc(Cl)c5c(=O)n4-c4ccccc4)c4ncnc(N)c34)ccc12` [Example 21a, (+)-3-(1-(4-amino-3-(3-methyl-1H-indazol-6-yl)-1H-pyrazolo[3,4-d]pyrimidin-1-yl)ethyl)-8-chloro-2-phenylisoquinolin-1(2H)-one]: the inhibition at 0.1 µM in data set [1] is 80 to 100%; in data set [2], 60 to 80%. The inhibition at 1 µM in data set [3] and in data set [4] was 0 to 10% throughout.
As to `CCC(c1nc2ccccc2c(=O)n1-c1ccccc1)n1nc(-c2ccc(OC(C)C)c(F)c2)c2c(N)ncnc21` (stereo not shown) [Example 22, 2-{1-[4-Amino-3-(3-fluoro-4-isopropoxy-phenyl)-pyrazolo[3,4-d]pyrimidin-1-yl]-propyl}-3-phenyl-3H-quinazolin-4-one], the melting point was in the range of 261 to 263 °C.
